Test results taken from EP0346132A1, “Pharmaceutical products” (priority 1988, dated 1989).
≈ marks a conversion by molar mass, not a printed value. Entries after “also recorded” stand apart in the source; their conditions may differ. Read-outs that look alike come from different tables or passages of the source.

Assays:
HIV [1] = test: Anti-HIV assay (protection of infected cells, XTT microculture tetrazolium assay); assay type: cell-based; details: for inhibit the infection and killing of human T lymphocytes (Th cells) by HIV / activity against HIV: statement in words; for activity against HIV: in vitro
Excerpt: (§1) Compound 14a was screened for anti-HIV activity at the National Cancer Institute, Frederick Cancer Research Facility, Frederick, Maryland (FCRF). The screening mode operational procedures utilized at FCRF are set forth in detail in U.S. patent application Serial No. 07/146,252, filed January 20, 1988, the disclosure of which is incorporated by reference herein.
(§2) Figure 2 depicts a plot of the percentage of test cells over uninfected cells (%) for both infected and uninfected cells as a function of the increasing concentration of compound 14a.
(§3) The data plotted on Figure 2 permit the calculation of an effective concentration (EC₅₀) with respect to infected cells of about 0.15 µg/ml, an inhibitory concentration (IC₅₀) with respect to normal cells of about 100 µg/ml, and a therapeutic index (TI₅₀) of about 667. An earlier assay carried out at the Southern Research Institute yielded a TI₅₀ of about 200 when MT-2 cells were cultured with H9/HTLV-IIIB.
The following are the current screening mode operational procedures utilized at Southern Research Institute, Birmingham, AL. The procedure consists of 3 operations: 1) preparation of infected cells and distribution of the test plates; 2) preparation of drug dilution plates and distribution to the test plates; and 3) XTT assay procedure.
(§4) Cells to be treated in 50 ml conical centrifuge tubes for 30 minutes with 1-2 µg/ml of polybrene at 37°C, and pelleted (8 min., 1200 RPM). Virus is added [in RMPI-1640, 10% fetal calf serum (FCS), with interleukin-2 (IL-2) (for ATH8 cells), and antibiotics] to provide an MOI of approximately 0.01. An MOI of 0.01 is obtained by adding 10³ infectious units of virus to 10⁵ cells. Medium alone is added to virus-free control cells. The treated or control cells are incubated for 1 hour at 37°C in 5% CO₂ in air. Infected or uninfected cells are diluted to give 1 x 10⁴ cells/100 µl (2 x 10⁴ cells/100 µl for ATH8 cells). Infected or uninfected cells (100 µl) are distributed to appropriate wells of a 96 well, U-bottom, microtiter plate. Each compound dilution is tested in duplicate with infected cells. Uninfected cells are examined for drug sensitivity in a single well for each dilution of compound. Drug free control cells, infected and uninfected, are run in triplicate in wells B3 through D3 and E3 through G3, respectively. Wells A4 through A11 and H4 through H11 are drug blanks and get medium alone at this point. The plates are then incubated at 37°C in 5% CO₂ until ready for drug addition.
The first dilution of each drug is made in a test tube according to the dilution specified hereinbelow. The remaining dilutions are made in 96-well plates. All wells of each plate are filled with 225 µl of medium using a Cetus liquid handling system programed according to the plate filling worksheet. Twenty-five microliters (25 µl) of 2 diluted compounds are manually added to row 11 of a filled dilution plate in the same order in which the drugs will appear on the test plate. The two compounds are then serially diluted 10 fold from row 11 through row 4, using the Cetus liquid handling system, preprogramed with the serial dilution file worksheet.
Using a multi-channel pipettor with […], 100 µl of each drug dilution is transferred to the test plate; 100 µl from wells A4 through H4 of the dilution plate to the same wells of the test plate. Wells B3 through G3 and B2 through G2 receive medium alone.
Test plates are incubated at 37°C in 5% CO₂ in air for 7 days or until virus control cells are lysed as determined microscopically.
An XTT-PMS solution is prepared immediately prior to its addition to the wells of the culture dish [1 mg/ml XTT; 2,3-bis(2-methoxy-4-nitro-5-sulfophenyl)-5-(phenylamino)carbonyl-2H-tetrazolium hydroxide solution in media without FCS]. The stock PMS (phenazine methosulfate (15.3 mg PMS/ml FBS)) solution is diluted 1:100 (0.153 mg/ml). […]

P-388 Leukemia Cells = test: P-388 mouse leukemia cell culture cytotoxicity assay; assay type: cell-based; details: P388, inhibitory (cytotoxicity) concentration for P-388 leukemia cells in culture, read-out: ED₅₀
Excerpt: The ED₅₀ cytotoxicity concentrations determined for analogs 7a, 9a, 10a, 16a, and 17a in the P-388 mouse leukemia cell culture assay are given in Table II.

[2] = Anti-HIV assay, toxicity to uninfected (normal) cells, MT-2; assay type: cell-based; details: human, mt-2 cells, ID₅₀
Excerpt: as §1, §2, §3, §4

MT-2 = test: as above; assay type: cell-based; details: Homo sapiens, MT2; Figure 2; screened at FCRF; normal cells; read-out: inhibitory concentration (IC₅₀) with respect to normal cells
Excerpt: as §1, §2, §3, §4

[3] = Anti-HIV assay, toxicity to uninfected (normal) cells, ATH-8; assay type: cell-based; details: human, ath-8 cells; first ID₅₀ column (c2); Cell Line ATH-8
Excerpt: as §1, §3
(§5) Cells to be treated in 50 ml conical centrifuge tubes for 30 minutes with 1-2 µg/ml of polybrene at 37°C, and pelleted (8 min., 1200 RPM). Virus is added [in RMPI-1640, 10% fetal calf serum (FCS), with interleukin-2 (IL-2) (for ATH8 cells), and antibiotics] to provide an MOI of approximately 0.01. An MOI of 0.01 is obtained by adding 10³ infectious units of virus to 10⁵ cells. Medium alone is added to virus-free control cells. The treated or control cells are incubated for 1 hour at 37°C in 5% CO₂ in air. […] The plates are then incubated at 37°C in 5% CO₂ until ready for drug addition.

HSV-1 = test: Activity against Herpes Simplex Virus Type 1; details: statement in words
[4] = Anti-HIV assay, toxicity to uninfected (normal) cells, MT-2C; assay type: cell-based; details: human, mt-2c cells
Excerpt: as §1, §3, §5

[5] = Anti-HIV assay, toxicity to uninfected (normal) cells, CEM-C; assay type: cell-based; details: human, first ID₅₀ column (c2), Cell Line CEM-C
Excerpt: as §1, §3, §5

HIV [6] = details: background and literature; statement in words; cited from earlier work
HIV [7] = details: early clinical trials; statement in words; cited from earlier work
[8] = Human immunodeficiency virus 1, Cell Line MT-2, read-out: ED₅₀
[9] = Human immunodeficiency virus 1, Cell Line MT-2C, read-out: ED₅₀

CC(=O)OC[C@@H]1C=C[C@H](n2cnc3c(=O)[nH]c(N)nc32)C1 (racemic) [1α-acetate ester of 14a, (1α,2α)-4-(2-Amino-6-hydroxy-9H-purin-9-yl)-2-cyclopentenyl Acetoxycarbinol]
inhibition at 6 µg/mL (HIV [1]; Human immunodeficiency virus 1, against HIV at 6 µg/ml): 28%

Nc1c(Cl)ncnc1N[C@H]1C=C[C@@H](CO)C1 (racemic) [Compound 3a, (±)-(1α,4α)-4-[(5-Amino-6-chloro-4-pyrimidinyl)-amino]-2-cyclopentenylcarbinol]
inhibit the infection and killing of human T lymphocytes (Th cells) by HIV (HIV [1]): effective

Nc1c(Cl)ncnc1N[C@H]1CC[C@@H](CO)C1 (racemic) [Compound 3b]
inhibit the infection and killing of human T lymphocytes (Th cells) by HIV (HIV [1]): effective

Nc1nc(Cl)cc(N[C@H]2C=C[C@@H](CO)C2)n1 (racemic) [Compound 4a, (±)-(1α,4α)-4-[(2-Amino-6-chloro-4-pyrimidinyl)-amino]-2-cyclopentenylcarbinol]
inhibit the infection and killing of human T lymphocytes (Th cells) by HIV (HIV [1]): effective

Nc1nc(Cl)cc(N[C@H]2CC[C@@H](CO)C2)n1 (racemic) [Compound 4b]
inhibit the infection and killing of human T lymphocytes (Th cells) by HIV (HIV [1]): effective

Nc1nc(Cl)c(N=Nc2ccc(Cl)cc2)c(N[C@H]2C=C[C@@H](CO)C2)n1 (racemic) [Compound 5a, (±)-(1α,4α)-4-{[2-Amino-6-chloro-5-(4-chlorophenyl)-azo]-4-pyrimidinyl]-amino}-2-cyclopentenylcarbinol]
inhibit the infection and killing of human T lymphocytes (Th cells) by HIV (HIV [1]): effective

Nc1nc(Cl)c(N)c(N[C@H]2C=C[C@@H](CO)C2)n1 (racemic) [Compound 6a, (±)-(1α,4α)-4-[(2,5-Diamino-6-chloro-4-pyrimidinylamino]-2 cyclopentenylcarbinol]
inhibit the infection and killing of human T lymphocytes (Th cells) by HIV (HIV [1]): effective

OC[C@@H]1C=C[C@H](n2cnc3c(Cl)ncnc32)C1 (racemic) [Compound 7a, (±)-(1α,4α)-4-(6-chloro-9H-purin-9-yl)-2-cyclopentenylcarbinol]
IC50 (P-388 Leukemia Cells): 12 µg/mL (≈ 47.9 µM) | activity against HIV (HIV [1]): active | inhibit the infection and killing of human T lymphocytes (Th cells) by HIV (HIV [1]): effective | CC50 [2]: 58.5 µg/mL (≈ 233 µM)

O=c1[nH]cnc2c1ncn2[C@H]1C=C[C@@H](CO)C1 (racemic) [Compound 8a, (±)-(1α,4α)-4-(6-Hydroxy-9H-purin-9-yl)-2-cyclopentenylcarbinol]
inhibit the infection and killing of human T lymphocytes (Th cells) by HIV (HIV [1]): effective

Nc1ncnc2c1ncn2[C@H]1C=C[C@@H](CO)C1 (racemic) [Compound 9a, (±)-(1α,4α)-4-(6-Amino-9H-purin-9-yl)-2-cyclopentenylcarbinol]
IC50 (P-388 Leukemia Cells): 40 µg/mL (≈ 173 µM) | EC50 (HIV [1]; [8]): 2.3 µg/mL (≈ 9.95 µM) | activity against HIV (HIV [1]): active | inhibit the infection and killing of human T lymphocytes (Th cells) by HIV (HIV [1]): effective | CC50 [2]: 50 µg/mL (≈ 216 µM)

OC[C@@H]1C=C[C@H](n2cnc3c(S)ncnc32)C1 (racemic) [Compound 10a, (±)-(1α,4α)-4-(6-Mercapto-9H-purin-9-yl)-2-cyclopentenylcarbinol]
IC50 (P-388 Leukemia Cells): 3 µg/mL (≈ 12.1 µM) | activity against HIV (HIV [1]): active | inhibit the infection and killing of human T lymphocytes (Th cells) by HIV (HIV [1]): effective | CC50 [2]: 7.33 µg/mL (≈ 29.5 µM)

Nc1nc(Cl)c2ncn([C@H]3C=C[C@@H](CO)C3)c2n1 (racemic) [Compound 13a, (±)-(1α,4α)-4-(2-Amino-6-chloro-9H-purin-9-yl)-2-cyclopentenyl carbinol]
EC50 (HIV [1]; [8]): 0.41 µg/mL (≈ 1.54 µM) | activity against HIV (HIV [1]): active | inhibit the infection and killing of human T lymphocytes (Th cells) by HIV (HIV [1]): effective | CC50 [2]: 6.97 µg/mL (≈ 26.2 µM)

Nc1nc2c(ncn2[C@H]2C=C[C@@H](CO)C2)c(=O)[nH]1 (racemic) [Compound 14a, (±)-(1α,4α)-4-(2-Amino-6-hydroxy-9H-purin-9-yl)-2-cyclopentenyl carbinol]
therapeutic index (TI₅₀) (HIV [1]; Figure 2, screened at FCRF): about 667 | EC50 (HIV [1]; Human immunodeficiency virus 1, ATH-8, Cell Line ATH-8, read-out: ED₅₀): 0.2 µg/mL (≈ 0.809 µM) | EC50 (HIV [1]; Human immunodeficiency virus 1, Figure 2, screened at FCRF, read-out: effective concentration (EC₅₀) with respect to infected cells): ~0.15 µg/mL (≈ 0.607 µM) | TI₅₀ (HIV [1]; earlier assay at Southern Research Institute, MT-2 cells cultured with H9/HTLV-IIIB): about 200 | activity against HIV (HIV [1]): strongly inhibits HIV infectivity in vitro | inhibit the infection and killing of human T lymphocytes (Th cells) by HIV (HIV [1]): effective | IC50 (MT-2): ~100 µg/mL (≈ 404 µM) | CC50 [3]: 55.3 µg/mL (≈ 224 µM) | active against HSV-1 (HSV-1): active

Nc1nc(N)c2ncn([C@H]3C=C[C@@H](CO)C3)c2n1 (racemic) [Compound 15a, (±)-(1α,4α)-4-(2,6-Diamino-9H-purin-9-yl)-2-cyclopentenylcarbinol]
EC50 (HIV [1]; [9]): 1.9 µg/mL (≈ 7.71 µM) | activity against HIV (HIV [1]): active | inhibit the infection and killing of human T lymphocytes (Th cells) by HIV (HIV [1]): effective | CC50 [4]: > 125 µg/mL

Nc1nc(Cl)c2nnn([C@H]3C=C[C@@H](CO)C3)c2n1 (racemic) [Compound 16a]
IC50 (P-388 Leukemia Cells): 1 µg/mL (≈ 3.75 µM)

Nc1nc2c(nnn2[C@H]2C=C[C@@H](CO)C2)c(=O)[nH]1 (racemic) [Compound 17a]
IC50 (P-388 Leukemia Cells): 4.5 µg/mL (≈ 18.1 µM)

Nc1nc(O)c2ncn([C@H]3C=C[C@@H](CO)C3)c2n1 [(-)14a, (1S,4R)-4-(2-Amino-6-hydroxy-9H-Purin-9-yl)-2-cyclopentenyl Carbinol]
EC50 (HIV [1]; [9]): 0.325 µg/mL (≈ 1.31 µM) | activity against HIV (HIV [1]): highly active | CC50 [5]: 189 µg/mL (≈ 764 µM) | CC50 ([4]; first ID₅₀ column (c2), Cell Line MT-2C, read-out: ID₅₀): 135 µg/mL (≈ 546 µM)

[N-]=[N+]=N[C@H]1C[C@H](n2ccc(=O)[nH]c2=O)O[C@@H]1CO [CS-87, 3′-azido-2′,3′-dideoxyuridine]
activity against HIV in vitro (HIV [6]): significant activity against HIV in vitro; also recorded: significantly inhibit HIV replication in vitro

NC(=O)c1ncn([C@@H]2O[C@H](CO)[C@@H](O)[C@H]2O)n1 [Ribavirin, 1-β-D-Ribofuranosyl-1H-1,2,4-triazole-3-carboxamide]
effect in AIDS patients (HIV [7]): inhibited viral replication

Cc1cn([C@H]2C=C[C@@H](CO)O2)c(=O)[nH]c1=O [d4T, 2′,3′-dideoxy-2′,3′-didehydrothymidine]
activity against HIV in vitro (HIV [6]): potent inhibitor of HIV replication in vitro

OC[C@@H]1CC[C@H](n2cnc3c(O)ncnc32)O1 [ddI, 2′,3′-Dideoxyinosine]
activity against HIV in vitro (HIV [6]): inhibit HIV-induced cytopathic effects in vitro; also recorded: significant antiviral activity against HIV in vitro
